Series [1] in a line: Antioxidant activity assessed as ORAC-FL index. It counts as functional.
In series [2] the target is T1, Catechol O-methyltransferase (Rattus norvegicus) (UniProt P22734).
T1 sequence (whole entry): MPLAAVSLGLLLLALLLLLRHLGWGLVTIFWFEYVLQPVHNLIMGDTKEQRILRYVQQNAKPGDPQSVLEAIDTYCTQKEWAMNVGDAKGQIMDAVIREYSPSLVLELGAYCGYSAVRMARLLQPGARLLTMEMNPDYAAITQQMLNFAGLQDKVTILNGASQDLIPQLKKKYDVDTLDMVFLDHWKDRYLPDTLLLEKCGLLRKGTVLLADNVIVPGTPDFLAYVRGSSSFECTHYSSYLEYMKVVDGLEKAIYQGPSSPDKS
The series is described as follows: Inhibition of S-COMT in rat liver homogenates using adrenaline as substrate and SAM as cofactor at 30 uM preincubated for 20 mins followed by substrate addition and measured after 5 mins relative to control. It counts as tissue-based. To be noted: time 25.0 min.

For series [3], the system named is SH-SY5Y. The series is described as follows: Cytoprotective activity against t-BHP induced oxidative stress in retinoic acid and TPA-differentiated human SH-SY5Y cells assessed as increase in resorufin fluorescence at 10 uM pretreated for 30 mins followed by t-BHP stimulation and measured after 24 hrs by resazurin dye based analysis. The settings on record: time 24.5 hrs. It counts as functional, cell-based. A general note: Alamar Blue is a resazurin reagent that responds to reducing activity.

The nature of series [4]: Retention time of compound at pH 2.6 by LC/UV analysis. It counts as physicochemical. To be noted: buffer.
The subject of series [5] is SK-N-SH. The series is described as follows: Cytotoxicity against human SK-N-SH cells assessed as reduction in calcein fluorescence at 30 to 50 uM by calcein-AM assay. It counts as toxicity, cell-based. To be noted: dose 30-50 µM.
Series [6] addresses T2, Catechol O-methyltransferase (Rattus norvegicus, UniProt P22734).
T2 sequence (P22734 whole entry): T1 sequence (whole entry)
The experiment in a line: Inhibition of MB-COMT in rat brain homogenates using adrenaline as substrate and SAM as cofactor preincubated for 20 mins followed by substrate addition and measured after 5 mins. It counts as tissue-based.

For series [7], the system named is SH-SY5Y. The experiment in a line: Cytotoxicity against retinoic acid and TPA-differentiated human SH-SY5Y cells assessed as reduction in lysosomal activity by measuring neutral red dye internalization at 10 to 50 uM incubated for 24 hrs by neutral red dye based assay. It counts as toxicity, cell-based. To be noted: dose 10-50 µM.
A short description of series [8]: Oxidation potential of compound at pH 7.3 by differential pulse voltammetry analysis. It counts as physicochemical.
Series [9] in a line: Chromatographic hydrophobicity index of compound at pH 2.6 by HPLC analysis. It counts as physicochemical.
The target of series [10] is T3, Amine oxidase [flavin-containing] B (Homo sapiens, UniProt P27338).
T3 sequence (P27338 whole entry): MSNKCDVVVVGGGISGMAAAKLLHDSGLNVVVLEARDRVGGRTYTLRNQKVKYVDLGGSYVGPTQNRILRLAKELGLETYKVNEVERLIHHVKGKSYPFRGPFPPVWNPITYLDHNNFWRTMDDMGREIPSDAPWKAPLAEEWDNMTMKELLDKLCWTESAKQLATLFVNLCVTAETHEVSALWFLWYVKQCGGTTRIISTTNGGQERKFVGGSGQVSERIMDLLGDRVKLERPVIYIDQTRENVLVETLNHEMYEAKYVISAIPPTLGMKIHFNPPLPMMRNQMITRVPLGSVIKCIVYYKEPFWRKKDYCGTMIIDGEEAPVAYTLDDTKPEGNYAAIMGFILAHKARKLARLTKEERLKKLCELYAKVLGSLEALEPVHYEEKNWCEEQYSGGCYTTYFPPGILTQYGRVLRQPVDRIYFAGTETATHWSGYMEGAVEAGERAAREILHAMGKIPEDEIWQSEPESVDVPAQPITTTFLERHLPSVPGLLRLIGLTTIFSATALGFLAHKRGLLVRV
The experiment in a line: Inhibition of human MAO-B using kynuramine as substrate incubated for 30 mins by spectrophotometry analysis.

Series [11] deals with T2, Catechol O-methyltransferase. The experiment in a line: Inhibition of MB-COMT in rat liver homogenates using adrenaline as substrate and SAM as cofactor preincubated for 20 mins followed by substrate addition and measured after 5 mins. It counts as tissue-based.
The species named for series [12] is Homo sapiens. The series is described as follows: Selectivity index, ratio of IC50 for human MAO-A to IC50 for human MAO-B.
For series [13], the target named is T4, Amine oxidase [flavin-containing] A (Homo sapiens, UniProt P21397).
T4 sequence (P21397 whole entry): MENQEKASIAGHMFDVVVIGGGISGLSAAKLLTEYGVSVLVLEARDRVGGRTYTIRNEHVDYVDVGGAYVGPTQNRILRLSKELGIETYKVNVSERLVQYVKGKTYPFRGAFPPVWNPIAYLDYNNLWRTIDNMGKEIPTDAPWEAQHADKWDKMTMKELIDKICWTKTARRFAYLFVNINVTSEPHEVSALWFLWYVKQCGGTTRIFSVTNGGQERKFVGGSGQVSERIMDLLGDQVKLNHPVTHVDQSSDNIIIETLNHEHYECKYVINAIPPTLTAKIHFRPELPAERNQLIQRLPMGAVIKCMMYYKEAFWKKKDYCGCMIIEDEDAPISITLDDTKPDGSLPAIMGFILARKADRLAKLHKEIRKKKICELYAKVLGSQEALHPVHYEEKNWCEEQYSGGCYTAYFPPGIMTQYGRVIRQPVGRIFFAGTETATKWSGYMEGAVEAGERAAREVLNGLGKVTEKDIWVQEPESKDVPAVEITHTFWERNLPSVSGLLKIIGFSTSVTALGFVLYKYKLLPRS
The series is described as follows: Inhibition of human MAO-A using kynuramine as substrate at 10 uM incubated for 30 mins by spectrophotometry analysis relative to control. The settings on record: 0.5 h.

The species entered for series [14] is Rattus norvegicus. The experiment in a line: Selectivity index, ratio of IC50 for S-COMT in rat liver homogenates to IC50 for MB-COMT in rat brain homogenates. It counts as tissue-based.
The test system of series [15] is SH-SY5Y. The series is described as follows: Cytotoxicity against retinoic acid and TPA-differentiated human SH-SY5Y cells assessed as reduction in metabolic activity by measuring resazurin reduction at 10 uM incubated for 24 hrs by resazurin dye based assay relative to control. It counts as toxicity, cell-based. Details: scale not given: the % may be the effect or the level left.

Series [16] relates to SH-SY5Y. The series is described as follows: Cytotoxicity against retinoic acid and TPA-differentiated human SH-SY5Y cells upto 50 uM incubated for 24 hrs by resazurin dye based assay. It counts as toxicity, cell-based.
In series [17] the test system is SH-SY5Y. The series is described as follows: Cytotoxicity against retinoic acid and TPA-differentiated human SH-SY5Y cells upto 50 uM incubated for 24 hrs by neutral red dye based assay. It counts as toxicity, cell-based.

Usually inhibition stands for how much of the control response was suppressed. As usually defined, the IC50 is the concentration that inhibits the measured activity by half.

Each structure is given as a SMILES string. Calls of active or inactive are those of the source. No cut-off for these calls is given here. Bounds are passed on as bounds.

As for `N#C/C(=C\C=C\c1ccc(O)c(O)c1)C(=O)N1CCCCC1`, the Activity index in [1] came out at 3.5. This compound also displayed an inhibition in series [2] of less than 50%. For the same compound, the result in [3] was Active. The Retention_time in series [4] is 10.5 min. For the same compound, the Activity entry in series [5] is recorded as “Non-Toxic”; in series [7], “Non-Toxic”; in [15], greater than 85%. Moreover, the values for the IC50 in series [6], in series [10] and in [11] were 1.33 µM, 4.27 µM and 2.69 µM, respectively. The same compound registered an Ep in [8] of 154 mV. Further, the CHI in series [9] is 56.03. Further, the Ratio IC50 in [12] was greater than 2.3; in [14], greater than 23. The same compound had an inhibition at 10 µM in series [13] of less than 50%.
With `Cc1ccc(C(=O)c2cc(O)c(O)c([N+](=O)[O-])c2)cc1` [TOLCAPONE], the Activity entry in series [16], in series [5] and in series [17] was “Non-Toxic” each time.

The record behind these values is ChEMBL document CHEMBL5352424, “Boosting caffeic acid performance as antioxidant and monoamine oxidase B/catechol-O-methyltransferase inhibitor” (Eur J Med Chem, 2022).
